The values that follow come from PubChem BioAssay (NCI).

Molecules are shown by their SMILES.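 Briefly, cells in 96-well plates were exposed to five compound concentrations for 48 h, and endpoints were estimated by linear interpolation. The concentration for 50% growth inhibition is given as GI50. At the TGI there is no net growth.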

Among the test systems are T-47D breast; MOLT-4 leukemia; BT-549 breast; MALME-3M melanoma; SK-OV-3 ovarian; SW-620 colon; UO-31 renal.
Holding throughout (assay): NCI tumour cell line growth inhibition, 48 h

As for `COc1ccccc1Nc1nc(NNC(=O)Cc2ccccc2)nc(NNC(=O)c2ccncc2)n1`, the TGI in the assay with T-47D breast, in the assay on MOLT-4 leukemia, in the assay with BT-549 breast, with MALME-3M melanoma, in the assay on SK-OV-3 ovarian and with SW-620 colon was more than 10 µM in each case.

As to `Cc1c(NC2(C)C(=O)N(/N=C/c3ccccc3)N=C2c2ccccc2)n[nH]c1-c1ccccc1` (configuration not stated), the TGI in the assay with T-47D breast, in the assay on MOLT-4 leukemia, in the assay with BT-549 breast, in the assay with MALME-3M melanoma, in the assay on SK-OV-3 ovarian and in the assay on SW-620 colon was more than 100 µM each time. Moreover, the TGI with UO-31 renal is more than 100 µM.

Turning to `CC(=O)c1cc2ccccc2n(O)c1=N`, the TGI with T-47D breast, in the assay with MOLT-4 leukemia, in the assay on MALME-3M melanoma and in the assay with SK-OV-3 ovarian was more than 100 µM each time.

`CSc1c(C#N)c2n(c3ccccc13)c1ccccc1[n+]2C`: the TGI is more than 100 µM with T-47D breast; 38.6 µM in the assay with MOLT-4 leukemia; 74.3 µM in the assay with BT-549 breast; 34.6 µM with MALME-3M melanoma; more than 100 µM with SW-620 colon; 64.9 µM in the assay with UO-31 renal.

Consider `Cc1ccc(SC(=O)N2C(=S)NC(=NC3CCCCC3)C23CCCCC3)cc1`, for which the TGI in the assay with T-47D breast, with BT-549 breast, in the assay on MALME-3M melanoma, in the assay on SK-OV-3 ovarian, in the assay on SW-620 colon and in the assay on UO-31 renal was more than 100 µM throughout.

Take `CN(C)CCNc1ncnc2nc(-c3ccc4ccccc4c3)[nH]c12`: the TGI in the assay with T-47D breast, with MOLT-4 leukemia, with BT-549 breast, in the assay with MALME-3M melanoma, with SK-OV-3 ovarian and in the assay on SW-620 colon was more than 100 µM in each case. Further, the TGI in the assay with UO-31 renal is more than 100 µM.

Take `CC(=O)OCC=C(CCl)CCC(Br)C(C)(C)Br` (mixture of isomers): the TGI in the assay with T-47D breast, in the assay with MOLT-4 leukemia, in the assay on BT-549 breast, in the assay on MALME-3M melanoma, with SK-OV-3 ovarian and in the assay with SW-620 colon was more than 10 µM in each case. Further, in the assay on UO-31 renal, the TGI is more than 10 µM.

`COc1ccc(C(=O)N2c3ccccc3Sc3ccccc32)c(C(F)(F)F)c1`: the GI50 in the assay with MOLT-4 leukemia is 0.406 µM; in the assay with BT-549 breast, 0.892 µM; in the assay with MALME-3M melanoma, 25.8 µM; in the assay with SK-OV-3 ovarian it was 0.794 µM; in the assay on SW-620 colon it was 0.425 µM; with UO-31 renal it was 2.62 µM. The TGI was more than 100 µM with MOLT-4 leukemia; 13.6 µM in the assay with BT-549 breast; more than 100 µM in the assay with MALME-3M melanoma; more than 100 µM in the assay with SK-OV-3 ovarian; more than 100 µM with SW-620 colon; more than 100 µM in the assay with UO-31 renal.

For `CSc1cc(N)ccc1N=Nc1ccc(S(N)(=O)=O)cc1`, the TGI is 58.3 µM in the assay with T-47D breast; more than 100 µM in the assay with MOLT-4 leukemia; 36.4 µM with BT-549 breast; 84.4 µM in the assay with MALME-3M melanoma; more than 100 µM in the assay on SK-OV-3 ovarian; more than 100 µM with SW-620 colon. The TGI in the assay on UO-31 renal amounted to 56.1 µM.

Consider `CN(Cc1cnc2nc(N)nc(N)c2n1)c1ccc(C(=O)NC(CCC(=O)NC(P(=O)(O)O)P(=O)(O)O)C(=O)O)cc1` (configuration not stated), for which the TGI in the assay with T-47D breast is more than 100 µM; with MOLT-4 leukemia it was more than 100 µM; with MALME-3M melanoma, more than 100 µM; in the assay on SW-620 colon, 28.3 µM; in the assay with UO-31 renal, more than 100 µM.

As to `CC(=O)N1CCN(C23OC4(N5CCN(C(C)=O)CC5)C5C6CC(C7C6C4C72)C53)CC1` (configuration not stated), the TGI in the assay with T-47D breast, with MOLT-4 leukemia, in the assay with BT-549 breast, in the assay on MALME-3M melanoma, in the assay on SK-OV-3 ovarian and with SW-620 colon was more than 100 µM throughout. Moreover, in the assay on UO-31 renal, the TGI was more than 100 µM.

`CCOC(=O)C(/C=N\C(=S)Nc1ccc(OCC)cc1)=C(/O)c1ccccc1`: the TGI in the assay with T-47D breast, with MOLT-4 leukemia, in the assay on MALME-3M melanoma, with SK-OV-3 ovarian and in the assay on SW-620 colon was more than 100 µM each time.

Regarding `COc1ccc(/C=C2\N=C(c3ccccc3)N(C3Nc4cc5c(cc4S3)NC(N3C(=O)/C(=C/c4ccc(OC)cc4)N=C3c3ccccc3)S5)C2=O)cc1` (configuration not stated), the TGI in the assay on T-47D breast is more than 100 µM; with MOLT-4 leukemia, more than 100 µM; with BT-549 breast it was 61.9 µM; in the assay with SW-620 colon, more than 100 µM; with UO-31 renal it was more than 100 µM.

In the case of `C[C@]12CC[C@@H]3c4ccc(OC(=O)c5ccccc5)cc4CC[C@H]3[C@@H]1CC[C@@H]2Oc1c2ccccc2nc2ccccc12`, the TGI is 26.7 µM with MOLT-4 leukemia; 25.1 µM with BT-549 breast; 21.6 µM in the assay on MALME-3M melanoma; more than 50 µM with SK-OV-3 ovarian; more than 50 µM with SW-620 colon; more than 50 µM in the assay on UO-31 renal.

Take `Nc1cc(N2CCCC2)nc(=O)n1Cc1ccccc1`: the TGI with MOLT-4 leukemia, in the assay with BT-549 breast, in the assay on MALME-3M melanoma and in the assay on SW-620 colon was more than 100 µM each time.

`O=C1C(Br)=C(c2ccccc2)S(=O)c2ccccc21` (configuration not stated): the TGI in the assay on T-47D breast is 10.6 µM; in the assay on BT-549 breast, 32.1 µM; in the assay with MALME-3M melanoma, 22.4 µM; in the assay on SK-OV-3 ovarian, 32.9 µM; in the assay with SW-620 colon, 38.4 µM; in the assay on UO-31 renal, 27.2 µM.

For the molecule `O=C(NCCCNCCNC(=O)c1cc(-c2ccccc2)nc2ccccc12)c1cc(-c2ccccc2)nc2ccccc12`, the TGI came to 4.31 µM with MOLT-4 leukemia; 29.4 µM in the assay with BT-549 breast; 3.43 µM in the assay with MALME-3M melanoma; 6.34 µM in the assay with SK-OV-3 ovarian; 3.09 µM with SW-620 colon; 3.89 µM with UO-31 renal.

Consider `COc1ccc(OC)c2c1C1CCC(=O)N1CN2C(C)=O` (configuration not stated), for which the TGI in the assay on T-47D breast, in the assay with MOLT-4 leukemia, in the assay on MALME-3M melanoma, in the assay with SK-OV-3 ovarian, in the assay with SW-620 colon and in the assay with UO-31 renal was more than 100 µM in each case.
